For 13 molecules, inhibition results are on record in patent publication US6133279A, “Therapeutic agents for renal diseases and organ preservatives” (Chugai Seiyaku Kabushiki Kaisha, priority 1996, dated 2000).

Molecules are shown by their SMILES. Read-outs that look alike come from different tables or passages of the source.

The subject of assay [1] is porcine kidney-derived LLC-PK1 cells. Nature of the assay: Protective effect against oxidized LDL-induced injury of porcine kidney-derived LLC-PK1 cells (2). It counts as cell-based. To be noted: Sus scrofa, LLC-PK1, 6 h, mean ± standard deviation, read-out: Cytoprotection rate (%). The procedure:
For the purpose of evaluating in vitro cytoprotective effect of the compounds of the present invention, a cytoprotective study was performed using porcine kidney-derived LLC-PK1 cells (ATCC-CRL-13921) injured by oxidized low-density lipoprotein (oxidized LDL) in the same manner as in Test example 1 with the exception of some points.
Preparation of oxidized LDL and the conditions for cell culture and addition of test compounds were the same as in Test example 1. However, oxidized LDL was not diluted with saline and added to cells in an amount of 25 μl/well to a concentration of 91 μg/ml and the cells were cultured for 6 hours after addition of the oxidized LDL. Then, 150 μl/well of the culture medium were collected and measured for the lactate dehydrogenase (LDH) level (LD-L: SIGMA DIAGNOSTICS) having leaked in the medium.

Assay [2] relates to murine mesangial derived MES13 cells. Briefly: Protective effect against oxidized LDL-induced injury of murine mesangial cells (in vitro). To be noted: Mus musculus, MES13, 10 h, mean ± standard deviation, read-out: Cytoprotection rate (%). It counts as cell-based. Here is the method:
For the purpose of evaluating in vitro cytoprotective effect of the compounds of the present invention on mesangial cells, a cytoprotective study was performed using murine mesangial derived MES13 cells (ATCC-CRL-1927) injured by oxidized LDL.
Oxidized LDL was prepared in the same manner as in Test example 1. Cell culture was carried out by plating 2.5×10^4 cells/250 μl/well on a 48-well plate using FBS-free medium (mixture of DME medium and F12 medium in a ratio of 3:1). Test compounds were dissolved or suspended in ethanol and added to the wells in an amount of 1.25 μl/well to a concentration of 1 or 10 μM in each well. After 16 hours or immediately after the addition of the compounds, oxidized LDL was added to cells in an amount of 25 μl/well to a concentration of 91 μg/ml and the cells were cultured for 10 hours after addition of the oxidized LDL. Then, 150 μl/well of the culture medium were collected and measured for the lactate dehydrogenase level (LDL: SIGMA DIAGNOSTICS) having leaked in the medium.
The magnitude of cytoprotective effect was expressed as the cytoprotection rate which was determined by calculating the data assuming that the magnitude in wells containing oxidized LDL is 0% and that the magnitude in containing saline is 100%.

The mark [3] stands for this setting: compound added 16 hours before adding oxidized LDL.
[4] abbreviates: compound added immediately before adding oxidized LDL.

Regarding `CC(C)(C)c1cc2c(c(C(C)(C)C)c1O)CC1(CCCCCCC1)O2` [Example 21, 4,6-Di-t-butyl-5-hydroxy-2,3-dihydrobenzofuran-2-spiro-1'-cyclooctane], the inhibition at 0.1 µM in assay [1] (setting [3]) turned out to be 15.6 ± 3.6%; in assay [1] (setting [4]), 2.5 ± 2.5%. For the same molecule, the inhibition at 1 µM in assay [1] (setting [3]) is 13.7 ± 13.4%; in assay [1] (setting [4]), 6.1%; in assay [2] (setting [3]), -7.5 ± 4.2%; in assay [2] (setting [4]) it was -1.5 ± 1.2%. Besides, the inhibition at 10 µM was 16 ± 2.6% in assay [1] (setting [3]), 14.4 ± 3.9% in assay [1] (setting [4]), -7 ± 3.4% in assay [2] (setting [3]) and 11.9 ± 4.8% in assay [2] (setting [4]).
`CC1(CO)Cc2c(cc(C(C)(C)C)c(O)c2C(C)(C)C)S1` (stereo not shown) [Example 63, 4,6-Di-t-butyl-5-hydroxy-2-hydroxymethyl-2-methyl-2,3-dihydrobenzothiophene]: in assay [1] (setting [3]), the inhibition at 0.1 µM was determined as 4.2 ± 4.4%, the inhibition at 1 µM is 95.3 ± 3.6% and the inhibition at 10 µM came out at 100.2 ± 0.4%. In addition, in assay [1] (setting [4]), the inhibition at 0.1 µM was 5.9 ± 1.7%, the inhibition at 1 µM came to 97.3% and the inhibition at 10 µM is 101.1 ± 0.2%.
Take `CC(C)(C)c1cc2c(c(C(C)(C)C)c1O)CC1(CCSCC1)O2` [Example 68, 4,6-Di-t-butyl-5-hydroxy-2,3-dihydrobenzofuran-2-spiro-4'-tetrahydrothiopyran]: in assay [1] (setting [3]), the inhibition at 0.1 µM was found to be 12 ± 3.6%, the inhibition at 1 µM amounted to 56.2 ± 4.6% and the inhibition at 10 µM was 102 ± 1.5%. Further, in assay [1] (setting [4]), the inhibition at 0.1 µM was 6.3 ± 3.3%, the inhibition at 1 µM worked out at 85.8% and the inhibition at 10 µM came to 100.6 ± 0.2%.
In the case of `CC(C)(C)c1cc2c(c(C(C)(C)C)c1O)CC1(CCOCC1)S2` [Example 69, 4,6-Di-t-butyl-5-hydroxy-2,3-dihydrobenzothiophene-2-spiro-4'-tetrahydropyran], the inhibition at 0.1 µM in assay [1] (setting [3]) stood at 1 ± 4.7%; in assay [1] (setting [4]), 4.5 ± 2.1%. Moreover, the inhibition at 1 µM in assay [1] (setting [3]) was found to be 24.6 ± 12.8%; in assay [1] (setting [4]) it was 42.5%; in assay [2] (setting [3]), 4.2 ± 6.3%; in assay [2] (setting [4]) it was 15.6 ± 4%. In addition, the inhibition at 10 µM in assay [1] (setting [3]) was 100.4 ± 0.5%; in assay [1] (setting [4]), 101.6 ± 0.7%; in assay [2] (setting [3]) it was 54.8 ± 9.3%; in assay [2] (setting [4]), 89.8 ± 0.8%.
For `CC1(CN)Cc2c(cc(C(C)(C)C)c(O)c2C(C)(C)C)O1` (stereo not shown) [Example 70, 2-Aminomethyl-4,6-di-t-butyl-5-hydroxy-2-methyl-2,3-dihydrobenzofuran], in assay [1] (setting [3]), the inhibition at 0.1 µM was determined as 17.5 ± 2.2%, the inhibition at 1 µM worked out at 101 ± 0.7% and the inhibition at 10 µM is 100.7 ± 0.8%. Moreover, in assay [1] (setting [4]), the inhibition at 0.1 µM was determined as 9.9 ± 2.4%, the inhibition at 1 µM was determined as 101% and the inhibition at 10 µM came out at 101.3 ± 0.6%.
As for `CC1(CC#N)Cc2c(cc(C(C)(C)C)c(O)c2C(C)(C)C)O1` (stereo not shown) [Example 71, 4,6-Di-t-butyl-2-cyanomethyl-5-hydroxy-2-methyl-2,3-dihydrobenzofuran], in assay [1] (setting [3]), the inhibition at 0.1 µM came out at 10.4 ± 2.2%, the inhibition at 1 µM amounted to 26.9 ± 2.5% and the inhibition at 10 µM stood at 105.6 ± 0.6%. Besides, in assay [1] (setting [4]), the inhibition at 0.1 µM is 4.3 ± 4.1%, the inhibition at 1 µM turned out to be 80.2% and the inhibition at 10 µM is 107 ± 2%.
For the molecule `CC1(C(=O)O)Cc2c(cc(C(C)(C)C)c(O)c2C(C)(C)C)O1` (stereo not shown) [Example 72, 4,6-Di-t-butyl-5-hydroxy-2-methyl-2,3-dihydrobenzofuran-2-carboxylic acid], in assay [1] (setting [3]), the inhibition at 0.1 µM was found to be 2.3 ± 1.3%, the inhibition at 1 µM amounted to 14.8 ± 2% and the inhibition at 10 µM came to 95.9 ± 1.3%. Also, in assay [1] (setting [4]), the inhibition at 0.1 µM is 2.7 ± 4.3%, the inhibition at 1 µM is 14% and the inhibition at 10 µM was 95.2 ± 0.9%.
Turning to `COC(=O)C1(C)Cc2c(cc(C(C)(C)C)c(O)c2C(C)(C)C)O1` (stereo not shown) [Example 73, 4,6-Di-t-butyl-5-hydroxy-2-methoxycarbonyl-2-methyl-2,3-dihydrobenzofuran], in assay [1] (setting [3]), the inhibition at 0.1 µM came out at 5.7 ± 1.4%, the inhibition at 1 µM came out at 78.9 ± 16.9% and the inhibition at 10 µM was 99.7 ± 1.4%. Further, in assay [1] (setting [4]), the inhibition at 0.1 µM was found to be 4.8 ± 2.9%, the inhibition at 1 µM turned out to be 97.8% and the inhibition at 10 µM came to 99.4 ± 0.3%.
With `CC1(C(=O)N2CCCC2)Cc2c(cc(C(C)(C)C)c(O)c2C(C)(C)C)O1` (stereo not shown) [Example 74, 1-(4,6-Di-t-butyl-5-hydroxy-2-methyl-2,3-dihydrobenzofuran-2-carbonyl)pyrrolidine], the values for the inhibition at 0.1 µM in assay [1] (setting [3]) and in assay [1] (setting [4]) were 25.2 ± 3.3% and 10.1 ± 2.3%, respectively. Further, the inhibition at 1 µM in assay [1] (setting [3]) is 54.8 ± 3.8%; in assay [1] (setting [4]) it was 72.7%; in assay [2] (setting [3]) it was -10.2 ± 1.4%; in assay [2] (setting [4]), 18.7 ± 2.8%. The inhibition at 10 µM in assay [1] (setting [3]) stood at 103.6 ± 0.5%; in assay [1] (setting [4]) it was 103.5 ± 0.6%; in assay [2] (setting [3]), 24.5 ± 3.3%; in assay [2] (setting [4]), 73 ± 0.3%.
Take `CCOC(=O)/C=C/C1(C)Cc2c(cc(C(C)(C)C)c(O)c2C(C)(C)C)O1` (stereo not shown) [Example 75, Ethyl 3-(4,6-di-t-butyl-5-hydroxy-2-methyl-2,3-dihydrobenzofuran-2-yl)-2-propenoate]: the inhibition at 0.1 µM in assay [1] (setting [3]) is 4.9 ± 2.7%; in assay [1] (setting [4]), -4.9 ± 1.8%. Moreover, the inhibition at 1 µM was 26.6 ± 7% in assay [1] (setting [3]), 51.8% in assay [1] (setting [4]), -8 ± 2% in assay [2] (setting [3]) and 32.3 ± 2.4% in assay [2] (setting [4]). The inhibition at 10 µM in assay [1] (setting [3]) came to 99.8 ± 0.9%; in assay [1] (setting [4]), 98.7 ± 0.4%; in assay [2] (setting [3]), 64.5 ± 6.4%; in assay [2] (setting [4]), 79 ± 1.8%.
`CCOC(=O)CCC1(C)Cc2c(cc(C(C)(C)C)c(O)c2C(C)(C)C)O1` (stereo not shown) [Example 76, Ethyl 3-(4,6-di-t-butyl-5-hydroxy-2-methyl-2,3-dihydrobenzofuran-2-yl)propanoate]: the figures for the inhibition at 0.1 µM in assay [1] (setting [3]) and in assay [1] (setting [4]) were -10.4 ± 4.2% and -12.8 ± 1.2%, respectively. In addition, the inhibition at 1 µM in assay [1] (setting [3]) is -2.8 ± 3.5%; in assay [1] (setting [4]), -7.6%; in assay [2] (setting [3]), -4.8 ± 4.1%; in assay [2] (setting [4]) it was 5.3 ± 3.9%. Also, the inhibition at 10 µM in assay [1] (setting [3]) is 13.8 ± 4.2%; in assay [1] (setting [4]), 58.8 ± 9.5%; in assay [2] (setting [3]) it was -17.2 ± 0.9%; in assay [2] (setting [4]) it was 34.1 ± 2.5%.
As for `CC1(C=CCCCC(=O)O)Cc2c(cc(C(C)(C)C)c(O)c2C(C)(C)C)O1` (stereo not shown) [Example 77, 6-(4,6-Di-t-butyl-5-hydroxy-2-methyl-2,3-dihydrobenzofuran-2-yl)-5-hexenoicacid], the inhibition at 0.1 µM in assay [1] (setting [3]) amounted to 12.3 ± 2.7%; in assay [1] (setting [4]), 9.1 ± 1.8%. Moreover, the inhibition at 1 µM in assay [1] (setting [3]) turned out to be 6.1 ± 1.5%; in assay [1] (setting [4]), 10.6%; in assay [2] (setting [3]), 8.4 ± 0.4%; in assay [2] (setting [4]), 8.7 ± 2.3%. Moreover, the inhibition at 10 µM in assay [1] (setting [3]) was 35.8 ± 4%; in assay [1] (setting [4]), 48.5 ± 2.1%; in assay [2] (setting [3]), 2.5 ± 2.8%; in assay [2] (setting [4]), 24.3 ± 1.7%.
For `CC1(CCCCCC(=O)O)Cc2c(cc(C(C)(C)C)c(O)c2C(C)(C)C)O1` (stereo not shown) [Example 78, 6-(4,6-Di-t-butyl-5-hydroxy-2-methyl-2,3-dihydrobenzofuran-2-yl)hexanoic acid], the inhibition at 0.1 µM is -2.8 ± 0.9% in assay [1] (setting [3]) and -11.6 ± 2.7% in assay [1] (setting [4]). The inhibition at 1 µM in assay [1] (setting [3]) was -10.7 ± 8.9%; in assay [1] (setting [4]), -6.7%; in assay [2] (setting [3]), 13.5 ± 5.6%; in assay [2] (setting [4]), 13.2 ± 1.4%. For the same molecule, the inhibition at 10 µM in assay [1] (setting [3]) was found to be 67.5 ± 6.1%; in assay [1] (setting [4]), 80.9 ± 1.5%; in assay [2] (setting [3]), 7.6 ± 2.1%; in assay [2] (setting [4]) it was 51.3 ± 2.7%.
